Measured values from patent publication US20020142996A1, “Use of bisphosphonic acids for treating angiogenesis” (priority 1999, published 2002).
Where two headings read alike, the source gives them in different places. Values belong to the compound of their own block, whether it stands above or below them.

Experiments:
[1] = test system: Human umbilical vein endothelial cells (HUVEC); settings: 30 μM
[2] = test system: HUVEC; assay: Endothelial cell migration assay
[3] = test system: human tumour cell line A431 (epithelial carcinoma); assay: Tumour cell proliferation assay (methylene blue)
[4] = test system: Human umbilical vein endothelial cells (HUVEC); assay: cells
[5] = test system: bFGF induced angiogenesis; assay: Growth factor impregnated subcutaneous chamber implant angiogenesis model in mice (bFGF); assay type: in vivo; settings: 1, 10 and 100 μg/kg/day s.c., chambers removed 5 days after implantation
Procedure: (§1) Effect of Zoledronic Acid on Angiogenesis Induced by Growth Factor Impregnated, Subcutaneous Implants in Mice
(§2) Female mice (Tiflbm:MAG ) weighing 17 to 20 g were used. They were identified via ear markings and kept in groups (6 animals per cage) under normal conditions and observed daily. Six mice were used per treatment group in each experiment. All experiments were performed at least twice.
(§3) Porous tissue chambers made of perfluoro-alkoxy-Teflon (Teflon®-PFA, 21 mm×8 mm diameter, 550 μl volume) and perforated with 80 regularly spaced 0.8 mm holes were used. Both ends were sealed with removable caps of the same material. Four to six chambers were inserted in a silicon tube (12 mm diameter). […]
(§4) Five days after implantation, animals were anaesthetized (3% isoflurane) and sacrificed using an overdose of pentobarbitone (210 mg/kg i.p., Vetanarcol, Veterinaria AG, Zürich, Switzerland). Chambers were then taken out of the animal, the vascularized fibrous tissue that had formed around each implant was carefully removed, weighed and the total amount of blood was quantified by colorimetric determination of the haemoglobin concentration.
(§5) After addition of 2 ml of distilled water, tissue samples were homogenised for 1 min at 24000 rpm (Ultra Turrax T25). […] The absorbance at 540 mn (Uvikon 810 P) is proportional to the haemoglobin concentration. […]

[6] = test system: VEGF induced angiogenesis; assay: Growth factor impregnated subcutaneous chamber implant angiogenesis model in mice (VEGF); assay type: in vivo; settings: highest dose tested, 100 μg/kg/day s.c.
Procedure: as §1, §2, §3, §4, §5

Compound: O=C(O)CN(CCN(CC(=O)O)CC(=O)O)CC(=O)O [EDTA]
inhibition of HUVEC proliferation induced by FCS ([1]; FCS): 23.7%
inhibition of HUVEC proliferation induced by VEGF ([1]; VEGF): 55.6%
inhibition of HUVEC proliferation induced by bFGF ([1]; bFGF): 49.5%
effect on HUVEC migration [2]: no consistent effects
inhibition of A431 proliferation ([3]; 30 μM): 8.8%
effect on A431 proliferation in the tested dose range ([3]; tested dose range): no significant effect

IC50 ([3]; Homo sapiens, A-431, 72 h, read-out: IC50, proliferation of A431): 1.35 µM
Compound: O=P(O)(O)C(O)(Cn1ccnc1)P(=O)(O)O [Zoledronate, 1-hydroxy-2-(imidazol-1-yl)ethane-1,1-diphosphonic acid]
IC50 ([4]; read-out: IC50, VEGF-induced HUVEC proliferation): 6.9 ± 0.4 µM
IC50 ([4]; read-out: IC50, bFGF-induced HUVEC proliferation): 4.2 ± 0.4 µM
IC50 ([4]; read-out: IC50, serum-induced HUVEC proliferation): 4.1 ± 0.6 µM
effect on HUVEC migration ([2]; 30 μM): completely inhibited
effect on HUVEC migration ([2]; concentrations of up to 10 μM, basal medium, serum or VEGF): stimulated HUVEC migration

Compound: O=P(O)(O)C(O)(Cn1ccnc1)P(=O)(O)O [Zoledronic acid, 1-hydroxy-2-(imidazol-1-yl)ethane-1,1-diphosphonic acid]
approximate IC50, inhibition of bFGF-induced angiogenic response measured by blood content ([5]; blood content): ~3.1 µg/kg
approximate IC50, inhibition of bFGF-induced angiogenic response measured by weight ([5]; tissue weight): ~2.5 µg/kg
inhibition of the VEGF-induced increase in blood content [6]: significant inhibition
inhibition of the VEGF-induced increase in weight [6]: not in weight
